The source of these data is patent publication US20090047243A1, “COMBINATIONS FOR THE TREATMENT OF B-CELL PROLIFERATIVE DISORDERS” (priority 2007, published 2009).

Each structure is given as a SMILES string. Where a name gives a salt, the structure may show the parent alone.

Test [1] has as its system human multiple myeloma cells (MM.1R). The test can be described thus: Anti-proliferation assay (ATPLite, 72 h). Format: cell-based. Details: key: S = lnfX·lnfY·ΣIdata(Idata−ILoewe), volume over Loewe additivity. The gist of the method: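 Cell viability was read by ATPLite luminescence after compound exposure. ANBL6 medium carried 10 ng/ml IL-6. Compounds were serially diluted 2- or 3-fold over 12 concentrations for single-agent curves, and percent inhibition was calculated relative to the mean of untreated wells.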
For orientation: In ATP-based viability assays light output follows the ATP content of the culture.

Another test deals with ANBL6 MM cell line. The test can be described thus: Anti-proliferation assay (ATPLite, 72 h). Format: cell-based, human. As to conditions: CGS-21680 × PDE inhibitor. How it is done: (§1) ANBL6 and INA-6 culture media was also supplemented with 10 ng/ml IL-6. […] MM.1S, MM.1R, OCI-ly10, Karpas 422, and SU-DHL6 cells were provided by the Dana Farber Cancer Institute. H929, RPMI-8226, GA-10, and Farage cells were from ATCC (Cat #'s CCL-155, CRL-9068, CRL-2392 and CRL-2630 respectively). MOLP-8, EJM, KSM-12-PE, and OPM2 were from DSMZ. The ANBL6 and INA-6 cell lines were provided by the M. D. Anderson Cancer Research Center. Compounds were prepared in DMSO at 1000× the highest desired concentration. Master plates were generated consisting of serially diluted compounds in 2- or 3-fold dilutions in 384-well format. For single agent dose response curves, the master plates consisted of 9 individual compounds at 12 concentrations in 2- or 3-fold dilutions. For combination matrices, master plates consisted of individual compounds at 6 or 9 concentrations at 2- or 3-fold dilutions. […] To obtain combination data, two master plates were diluted into the assay plates. […] Thirty microliters of ATPLite (Perkin Elmer) at room temperature was then added to each well. […] Measurements were taken at the top of the well using a luminescence aperture and a read time of 0.1 seconds per well. The percent inhibition (% I) for each well was calculated using the following formula: % I=[(avg. untreated wells-treated well)/(avg. untreated wells)]×100. […] Negative inhibition values result from local variations in treated wells as compared to untreated wells. […] The uncertainty of each fitted parameter was estimated from the range over which the change in reduced chi-squared was less than one, or less than minimum reduced chi-squared if that minimum exceeded one, to allow for underestimated σI errors. Single agent curve data were used to define a dilution series for each compound to be used for combination screening in a 6×6 matrix format. […] The Loewe additivity model was used to quantify combination effects. […] A “Synergy Score” was also used, where the Synergy Score S=log fX log fY ΣIdata(Idata-ILoewe), summed over all non-single-agent concentration pairs, and where log fX,Y is the natural logarithm of the dilution factors used for each single agent. This effectively calculates a volume between the measured and Loewe additive response surfaces, weighted towards high inhibition and corrected for varying dilution factors. An uncertainty σS was calculated for each synergy score, based on the measured errors for the Idata values and standard error propagation.

The test system of another test is EJM MM cell line. The test can be described thus: Anti-proliferation assay (ATPLite, 72 h). It is filed as cell-based, human. To be noted: CGS-21680 × PDE inhibitor. How it is done: as §1
The next test has as its system INA-6 MM cell line. The test can be described thus: Anti-proliferation assay (ATPLite, 72 h). It is filed as cell-based, human. As to conditions: CGS-21680 × PDE inhibitor. How it is done:
as §1

The next test has as its system KSM-12-PE MM cell line. The test can be described thus: Anti-proliferation assay (ATPLite, 72 h). Format: cell-based, human. As to conditions: CGS-21680 × PDE inhibitor. How it is done:
as §1

A further test deals with MOLP-8 MM cell line. Kind of test: Anti-proliferation assay (ATPLite, 72 h). Format: cell-based, human. As to conditions: CGS-21680 × PDE inhibitor. How it is done:
as §1

The test system of a further test is OPM2 MM cell line. Kind of test: Anti-proliferation assay (ATPLite, 72 h). Format: cell-based, human. To be noted: CGS-21680 × PDE inhibitor. How it is done: as §1
The subject of test [2] is human multiple myeloma cells (MM.1R) transfected with siRNA. The test can be described thus: Anti-proliferation assay after siRNA transfection. Format: cell-based. How it is done:
siRNA to adenosine receptor A1, A2A, A3, PDE 2A, PDE 3B, PDE 4B, PDE 4D and PDE 7A, and control siRNA siCON were purchased from Dharmacon. A2B siRNA was purchased from Invitrogen. Electroporations were performed using an Amaxa Nucleoporator (program S-20) and solution V. siRNAs were used at 50 nM. […] RNA was isolated using Qiagen RNAeasy kits, and targets quantified by RT-PCR using gene specific primers purchased from Applied Biosystems.
Cells were added to 384-well plates 24 hours prior to compound addition such that each well contained 2000 cells in 35 μL of media. Master plates were diluted 100× (1 μL into 100 μL) into 384-well dilution plates containing only cell culture media. 4.5 μL from each dilution plate was added to each assay plate for a final dilution of 1000×. To obtain combination data, two master plates were diluted into the assay plates. Following compound addition, assay plates were kept at 37° C. and 5% CO2 for 72 hours. Thirty microliters of ATPLite (Perkin Elmer) at room temperature was then added to each well. Final amount of ATP was quantified within 30 minutes using ATPLite luminescent read-out on an Envision 2103 Multilabel Reader (Perkin Elmer). Measurements were taken at the top of the well using a luminescence aperture and a read time of 0.1 seconds per well.
We also examined the antiproliferative activity of adenosine receptor agonists when the MM cell line MM.1R was transfected with siRNA targeting the A1, A2A, A2B or A3 receptor. Specific gene silencing (A1, A2A, A2B, or A3) was greater than 50% as determined by real time PCR analysis 48 hours post-transfection. At 48 hours post-transfection, cells were exposed to adenosine receptor agonist, incubated an additional 72 hours, and compounds assayed for antiproliferative activity. Representative data is in Table 34. Cells transfected with adenosine receptor siRNA or a control siRNA (scrambled sequences designed so that cellular transcriptsare not targeted) were treated with the adenosine receptor agonist ADAC. […] Similar results were obtained with a second siRNA with specificity for different region of the A2A receptor mRNA, confirming that the reduction in adenosine receptor agonist activity is the result of specific siRNA targeting of the A2A receptor (data not shown).
In our experiments, PDE gene silencing was always greater than 50% as confirmed by real time PCR analysis 48 hours post-transfection. At 48 hours post-transfection, cells were exposed to adenosine receptor agonist and PDE inhibitor, incubated an additional 72 hours, and compounds assayed for antiproliferative activity. Representative data is in Tables 39-45. For each analysis, the activity of cells transfected with an siRNA targeting a specific PDE was compared to cells transfected with a control non-targeting siRNA (siCON).

Setting [3] is: in combination with adenosine receptor agonist CGS-21680, MM.1R.
[4] abbreviates: in combination with adenosine receptor agonist regadenoson, MM.1R.

As for `COc1cc(-c2ccc(=O)[nH]n2)ccc1OC(F)F` [Zardaverine, 6-(4-(difluoromethoxy)-3-methoxyphenyl)-3(2H)-Pyridazinone], the synergy score in test [1] (setting [3]) amounted to 2.15; in test [1] (setting [4]), 1.49; in the test with ANBL6 MM cell line, 2.11; in the test on EJM MM cell line, 0.98; in the test with INA-6 MM cell line it was 2.69; in the test on KSM-12-PE MM cell line it was 0.49. Moreover, the figures for the synergy score with MOLP-8 MM cell line and with OPM2 MM cell line were 3.06 and 1.15, respectively.

For `CCCCC#Cc1nc(N)c2ncn([C@@H]3O[C@H](C(=O)NCC)[C@@H](O)[C@H]3O)c2n1` [HE-NECA, hexynyladenosine-5′-N-ethylcarboxamide], the Antiproliferative activity in test [2] (A2A siRNA, HE-NECA 0.5 μM) is reported as 30%; in test [2] (A2A siRNA, HE-NECA 1 μM), 29%; in test [2] (A2A siRNA, HE-NECA 2 μM), 38%; in test [2] (A2A siRNA, HE-NECA 4.1 μM), 40%; in test [2] (MM.1R, siRNA targeting PDE 2A, HE-NECA 1.25 nM, R-(−)-Rolipram 0 μM), 36; in test [2] (MM.1R, siRNA targeting PDE 2A, HE-NECA 5 nM, R-(−)-Rolipram 0 μM), 51. In addition, the Antiproliferative activity in test [2] (MM.1R, siRNA targeting PDE 2A, HE-NECA 10 nM, R-(−)-Rolipram 0 μM) amounted to 55; in test [2] (MM.1R, siRNA targeting PDE 2A, HE-NECA 20 nM, R-(−)-Rolipram 0 μM) it was 68; in test [2] (MM.1R, siRNA targeting PDE 2A, HE-NECA […], R-(−)-Rolipram 0 μM), 48; in test [2] (control siRNA, HE-NECA 0.5 μM), 68%; in test [2] (control siRNA, HE-NECA 1 μM) it was 68%; in test [2] (control siRNA, HE-NECA 2 μM), 73%. Further, in test [2] (control siRNA, HE-NECA 4.1 μM), the Antiproliferative activity is recorded as 74%. For the same compound, the “effect of A2A receptor silencing on agonist activity” value in test [2] (MM.1R, A2A siRNA) is recorded as “strong effect”.

As to `COc1cc2c(cc1OC)-c1cc(=Nc3c(C)cc(C)cc3C)n(C)c(=O)n1CC2` [Trequinsin hydrochloride, 2,3,6,7-tetrahydro-9,10-dimethoxy-3-methyl-2-((2,4,6-trimethylphenyl)imino)-4H-pyrimido(6,1-a)isoquinolin-4-one], the synergy score in test [1] (in combination with adenosine receptor agonist ADAC, MM.1R) came out at 6.47; in test [1] (setting [3]), 6.57; in test [1] (in combination with adenosine receptor agonist HE-NECA, MM.1R), 4.329; in test [1] (setting [4]), 2.8; with ANBL6 MM cell line it was 4.55; with EJM MM cell line, 4.81. For the same compound, the synergy score in the test with INA-6 MM cell line came to 3.93; with KSM-12-PE MM cell line it was 2.44; in the test on MOLP-8 MM cell line, 4.7; in the test with OPM2 MM cell line, 4.74.

In the case of `NCCNC(=O)Cc1ccc(NC(=O)Cc2ccc(Nc3ncnc4c3ncn4[C@@H]3O[C@H](CO)[C@@H](O)[C@H]3O)cc2)cc1` [ADAC, N-(4-(2-((4-(2-((2-aminoethyl)amino)-2-oxoethyl)phenyl)amino)-2-oxoethyl)phenyl)-Adenosine], the Antiproliferative activity is recorded as 18% in test [2] (A1 siRNA, ADAC 0.013 μM); 16% in test [2] (A1 siRNA, ADAC 0.063 μM); 41% in test [2] (A1 siRNA, ADAC 0.51 μM); 52% in test [2] (A1 siRNA, ADAC 1 μM); 12% in test [2] (A2A siRNA, ADAC 0.013 μM); 6.7% in test [2] (A2A siRNA, ADAC 0.063 μM). Further, the Antiproliferative activity came out at 19% in test [2] (A2A siRNA, ADAC 0.51 μM); 24% in test [2] (A2A siRNA, ADAC 1 μM); 17% in test [2] (A2B siRNA, ADAC 0.013 μM); 12% in test [2] (A2B siRNA, ADAC 0.063 μM); 40% in test [2] (A2B siRNA, ADAC 0.51 μM); 53% in test [2] (A2B siRNA, ADAC 1 μM). Further, the Antiproliferative activity is 22% in test [2] (A3 siRNA, ADAC 0.013 μM); 18% in test [2] (A3 siRNA, ADAC 0.063 μM); 46% in test [2] (A3 siRNA, ADAC 0.51 μM); 54% in test [2] (A3 siRNA, ADAC 1 μM); 19% in test [2] (control siRNA, ADAC 0.013 μM); 15% in test [2] (control siRNA, ADAC 0.063 μM). For the same compound, the Antiproliferative activity was 43% in test [2] (control siRNA, ADAC 0.51 μM) and 54% in test [2] (control siRNA, ADAC 1 μM). Besides, the “antiproliferative activity after siRNA silencing” value in test [2] (MM.1R, siRNA that targeted the A2A receptor) is reported as “reduced”; in test [2] (MM.1R, siRNA to the A1, A2B, or A3 receptor), “did not affect ADAC activity”.
